Reference: patent publication US9273057B2 (Bristol-Myers Squibb Company, priority 2012, dated 2016)
pIC50: −log10 of the molar value.

What follows are compounds tested against CK2A1 (CK2α/β) (Homo sapiens, UniProt P68400) (assay: CK2 kinase assay, CK2A1 (CK2α/β)). Conditions: Table A; read-out: CK2A1 (CK2α/β) (IC50).
Assay type: biochemical

CK2A1 (CK2α/β), sequence (P68400 whole entry, species assumed): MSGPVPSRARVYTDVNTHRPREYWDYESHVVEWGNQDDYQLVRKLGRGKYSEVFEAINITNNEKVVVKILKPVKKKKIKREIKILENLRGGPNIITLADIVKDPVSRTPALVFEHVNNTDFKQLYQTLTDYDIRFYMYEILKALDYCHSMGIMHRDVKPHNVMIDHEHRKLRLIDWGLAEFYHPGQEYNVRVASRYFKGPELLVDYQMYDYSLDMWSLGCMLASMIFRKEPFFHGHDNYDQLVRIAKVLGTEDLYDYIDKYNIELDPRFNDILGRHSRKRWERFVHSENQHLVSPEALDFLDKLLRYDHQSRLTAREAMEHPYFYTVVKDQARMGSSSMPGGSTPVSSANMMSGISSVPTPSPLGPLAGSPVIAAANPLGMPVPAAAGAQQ
CK2A1 (CK2α/β), sequence (P67870 whole entry partner, species assumed): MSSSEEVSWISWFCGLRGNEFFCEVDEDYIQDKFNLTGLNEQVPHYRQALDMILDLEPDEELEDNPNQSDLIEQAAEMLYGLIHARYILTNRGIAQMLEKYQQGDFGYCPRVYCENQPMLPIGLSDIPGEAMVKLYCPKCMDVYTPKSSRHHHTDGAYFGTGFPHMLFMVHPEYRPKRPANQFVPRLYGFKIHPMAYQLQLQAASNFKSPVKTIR

pIC50 | Structure (SMILES)
9.39 | CC(C)(O)c1cc(C#N)cc(Nc2nc(NC3CC3)c3ncc(C#N)n3n2)c1Cl [Example 676, 2-((2-chloro-5-cyano-3-(2-hydroxypropan-2-yl)phenyl)amino)-4-(cyclopropylamino)imidazo[2,1-f][1,2,4]triazine-7-carbonitrile]
9.12 | N#Cc1cc(Nc2nc(NC3CC3)c3ncc(C#N)n3n2)c(Cl)c(N2CCC3C(CCN3C3COC3)C2)c1 (stereo not shown) [Example 444, 2-((2-chloro-5-cyano-3-(1-(oxetan-3-yl)hexahydro-1H-pyrrolo[3,2-c]pyridin-5(6H)-yl)phenyl)amino)-4-(cyclopropylamino)imidazo[2,1-f][1,2,4]triazine-7-carbonitrile]
9.12 | N#Cc1cc(Nc2nc(NC3CC3)c3ncc(C#N)n3n2)c(Cl)c(N2CCC(NC3CCOCC3)CC2)c1 [Example 125, 2-((2-chloro-5-cyano-3-(4-(tetrahydro-2H-pyran-4-ylamino)-1-piperidinyl)phenyl)amino)-4-(cyclopropylamino)imidazo [2,1-f][1,2,4]triazine-7-carbonitrile]
8.93 | CCNc1nc(Nc2cc(C#N)cc(C3CNC3)c2Cl)nn2c(C#N)cnc12 [Example 367, 2-((3-(azetidin-3-yl)-2-chloro-5-cyanophenyl)amino)-4-(ethylamino)imidazo[2,1-f][1,2,4]triazine-7-carbonitrile]
9.33 | CO[C@@H]1CN(c2cc(C#N)cc(Nc3nc(NC4CC4)c4ncc(C#N)n4n3)c2Cl)C[C@@H]1NC(=O)NC1COC1 [Example 290, 1-((3S,4R)-1-(2-chloro-5-cyano-3-((7-cyano-4-(cyclopropylamino)imidazo[2,1-f][1,2,4]triazin-2-yl)amino)phenyl)-4-methoxy-3-pyrrolidinyl)-3-(3-oxetanyl)urea]
9.32 | COC(=O)N1CCN(c2cc(C#N)cc(Nc3nc(NC4CC4)c4ncc(C#N)n4n3)c2Cl)CC1 [Example 67, methyl 4-(2-chloro-5-cyano-3-((7-cyano-4-(cyclopropylamino)imidazo[2,1-f] [1,2,4]triazin-2-yl)amino)phenyl)-1-piperazinecarboxylate]
9.23 | CC(C)(O)CN1CCC(c2cc(C#N)cc(Nc3nc(NC4CC4)c4ncc(C#N)n4n3)c2Cl)CC1 [Example 219, 2-((2-chloro-5-cyano-3-(1-(2-hydroxy-2-methylpropyl)-4-piperidinyl)phenyl)amino)-4-(cyclopropylamino)imidazo[2,1-f][1,2,4]triazine-7-carbonitrile]
8.92 | CC(C)(O)[C@H]1CN(c2cc(C#N)cc(Nc3nc(NC4CC4)c4ncc(C#N)n4n3)c2Cl)CCO1 [Example 38, 2-((2-chloro-5-cyano-3-((2R)-2-(1-hydroxy-1-methylethyl)-4-morpholinyl)phenyl)amino)-4-(cyclopropylamino)imidazo [2,1-f][1,2,4]triazine-7-carbonitrile]
7.85 | CCNc1nc(Nc2cc(C#N)cc(N3CC[C@@H](NC(=O)OC)C(N(C)C[C@H](O)CO)C3)c2Cl)nn2c(C#N)cnc12 (stereo partly drawn) [Example 772, methyl N-[(4R)-1-(2-chloro-5-cyano-3-{[7-cyano-4-(ethylamino)imidazo[2,1-f][1,2,4]triazin-2-yl]amino}phenyl)-3-{[(2S)-2,3-dihydroxypropyl](methyl)amino}piperidin-4-yl]carbamate]
8.46 | N#Cc1cnc2c(NC3CC3)nc(Nc3cc(C(F)F)cc(N4CCN(C5CCOC5)CC4)c3Cl)nn12 (racemic) [Example 265, (+/−) 2-(2-chloro-5-(difluoromethyl)-3-(4-(tetrahydrofuran-3-yl)piperazin-1-yl)phenylamino)-4-(cyclopropylamino)imidazo[1,2-f][1,2,4]triazine-7-carbonitrile]
8.34 | CCOCCC(=O)N1CC(N2CCN(c3cc(C#N)cc(Nc4nc(NC5CC5)c5ncc(C#N)n5n4)c3Cl)CC2)C1 [Example 511, 2-[(2-chloro-5-cyano-3-{4-[1-(3-ethoxypropanoyl)azetidin-3-yl]piperazin-1-yl}phenyl)amino]-4-(cyclopropylamino)imidazo[2,1-f][1,2,4]triazine-7-carbonitrile]
9.27 | CCNc1nc(Nc2cc(C#N)cc(N3CC[C@@H]4[C@@H](C3)OC(=O)N4C3COC3)c2Cl)nn2c(C#N)cnc12 (racemic) [Example 838, (+/−)-2-((2-chloro-5-cyano-3-((3aR,7aR)-1-(oxetan-3-yl)-2-oxohexahydrooxazolo[5,4-c]pyridin-5(2H)-yl)phenyl)amino)-4-(ethylamino)imidazo[2,1-f][1,2,4]triazine-7-carbonitrile]
8.77 | N#Cc1cc(Nc2nc(NC3CC3)c3ncc(C#N)n3n2)c(Cl)c([C@H]2CCC[C@@H](N3CC(F)C3)C2)c1 (single isomer, unassigned) [Example 729]
9.08 | CC(=O)N1CCC2(CC1)CN(c1cc(C#N)cc(Nc3nc(NC4CC4)c4ncc(C#N)n4n3)c1Cl)C2 [Example 806, 2-((3-(7-acetyl-2,7-diazaspiro[3.5]nonan-2-yl)-2-chloro-5-cyanophenyl)amino)-4-(cyclopropylamino)imidazo[2,1-f][1,2,4]triazine-7-carbonitrile]
9.00 | CCNc1nc(Nc2cc(C#N)cc(N3CC[C@@H]4[C@@H](C3)OCCN4C)c2Cl)nn2c(C#N)cnc12 (racemic) [Example 373, (+/−)-2-((2-chloro-5-cyano-3-((4aR,8 aR)-1-methylhexahydro-1H-pyrido[3,4-b][1,4]oxazin-6(7H)-yl)phenyl)amino)-4-(ethylamino)imidazo[2,1-f][1,2,4]triazine-7-carbonitrile]
9.09 | CC(C)(O)C(=O)N1CC(N2CCN(c3cc(C#N)cc(Nc4nc(NC5CC5)c5ncc(C#N)n5n4)c3Cl)CC2)C1 [Example 484, 2-[(2-chloro-5-cyano-3-{4-[1-(2-hydroxy-2-methylpropanoyl)azetidin-3-yl]piperazin-1-yl}phenyl)amino]-4-(cyclopropylamino)imidazo[2,1-f][1,2,4]triazine-7-carbonitrile]
9.00 | CCN1CCN(c2cc(C#N)cc(Nc3nc(NC4CC4)c4ncc(C#N)n4n3)c2Cl)C(=O)C1 [Example 636, 2-((2-chloro-5-cyano-3-(4-ethyl-2-oxopiperazin-1-yl)phenyl)amino)-4-(cyclopropylamino)imidazo[2,1-f][1,2,4]triazine-7-carbonitrile]
9.08 | CCNc1nc(Nc2cc(C#N)cc(N3CCC(NC)C3)c2Cl)nn2c(C#N)cnc12 (racemic) [Example 362, (+/−) 2-((2-chloro-5-cyano-3-(3-(methylamino)-1-pyrrolidinyl)phenyl)amino)-4-(ethylamino)imidazo[2,1-f][1,2,4]triazine-7-carbonitrile]
8.79 | CC(CO)N1CCN(c2cc(C#N)cc(Nc3nc(NC4CC4)c4ncc(C#N)n4n3)c2Cl)CC1 (racemic) [Example 54, (+/−) 2-((2-chloro-5-cyano-3-(4-(2-hydroxy-1-methylethyl)-1-piperazinyl)phenyl)amino)-4-(cyclopropylamino) imidazo[2,1-f][1,2,4] triazine-7-carbonitrile]
9.23 | COCC(=O)N1CCC(c2cc(C#N)cc(Nc3nc(NC4CC4)c4ncc(C#N)n4n3)c2Cl)CC1 [Example 227, 2-((2-chloro-5-cyano-3-(1-(methoxyacetyl)-4-piperidinyl)phenyl)amino)-4-(cyclopropylamino)imidazo[2,1-f][1,2,4]triazine-7-carbonitrile]
8.00 | CCNc1nc(Nc2cc(C#N)cc(N3CC[C@@H](NC(=O)OC)[C@@H](NCC(O)C(F)(F)F)C3)c2Cl)nn2c(C#N)cnc12 (stereo partly drawn) [Example 761, methyl N-[(3S,4R)-1-(2-chloro-5-cyano-3-{[7-cyano-4-(ethylamino)imidazo[2,1-f][1,2,4]triazin-2-yl]amino}phenyl)-3-[(3,3,3-trifluoro-2-hydroxypropyl)amino]piperidin-4-yl]carbamate]
9.00 | N#Cc1cc(Nc2nc(NC3CC3)c3ncc(C#N)n3n2)c(F)cc1F [Example 414, 2-((5-cyano-2,4-difluorophenyl)amino)-4-(cyclopropylamino)imidazo[2,1-f][1,2,4]triazine-7-carbonitrile]
8.13 | CCC(CO)(CO)C(=O)N1CC(N2CCN(c3cc(C#N)cc(Nc4nc(NC5CC5)c5ncc(C#N)n5n4)c3Cl)CC2)C1 [Example 524, 2-{[3-(4-{1-[2,2-bis(hydroxymethyl)butanoyl]azetidin-3-yl}piperazin-1-yl)-2-chloro-5-cyanophenyl]amino}-4-(cyclopropylamino)imidazo[2,1-f][1,2,4]triazine-7-carbonitrile]
8.91 | N#Cc1cc(Nc2nc(NC3CC3)c3ncc(C#N)n3n2)c(Cl)c(N2CCN([C@H]3C[C@@H](C#N)C3)CC2)c1 [Example 106]
7.66 | N#Cc1cc(Nc2nc(NC3CC3)c3ncc(C#N)n3n2)c(Cl)c(N2CCC(NCC3CC3)CC2)c1 [Example 136, 2-((2-chloro-5-cyano-3-(4-((cyclopropylmethyl)amino)-1-piperidinyl)phenyl)amino)-4-(cyclopropylamino)imidazo [2,1-f][1,2,4]triazine-7-carbonitrile]
8.54 | CN1CCN(c2cc(Cl)c(Nc3nc(NC4CC4)c4ncc(C#N)n4n3)cc2C#N)CC1 [Example 432, 2-((2-chloro-5-cyano-4-(4-methyl-1-piperazinyl)phenyl)amino)-4-(cyclopropylamino)imidazo[2,1-f][1,2,4]triazine-7-carbonitrile]
7.35 | CN1CC(N(C)C2CCN(c3cc(C#N)cc(Nc4nc(NC5CC5)c5ncc(C#N)n5n4)c3Cl)CC2)CC1=O (stereo not shown) [Example 714, 2-((2-Chloro-5-cyano-3-(4-(methyl(1-methyl-5-oxopyrrolidin-3-yl)amino)piperidin-1-yl)phenyl)amino)-4-(cyclopropylamino)imidazo[2,1-f][1,2,4]triazine-7-carbonitrile]
9.10 | N#Cc1cc(Nc2nc(NC3CC3)c3ncc(C#N)n3n2)c(F)c(N2CCN(C3COC3)CC2)c1 [Example 548, 2-((5-cyano-2-fluoro-3-(4-(oxetan-3-yl)piperazin-1-yl)phenyl)amino)-4-(cyclopropylamino)imidazo[2,1-f][1,2,4]triazine-7-carbonitrile]
